The structures appear in SMILES notation. ≈ marks a conversion by molar mass, not a printed value.

Test [1] in a line: Microbroth dilution assay (MIC), antibacterial activity. To be noted: range over all test strains (S. aureus, S. pneumoniae, E. faecalis, E. faecium, B. subtilis, E. coli and resistant strains); 35° C., read to no growth after 22-24 hours; NCCLS guidelines; read-out: minimum inhibitory concentration (MIC). The class given is cell-based. The protocol: (§1) The protocols used to determine the antibacterial activity of Compound I are described below.
(§2) • Cation-Adjusted Mueller Hinton Broth (MH; BBL) • 50% Lysed Horse Blood (LHB; BBL) (stored frozen) • RPMI 1640 (BioWhittaker) • Human Serum (Pel-Freez) • RPMI 1640 (BioWhittaker) • Haemophilus Test Medium (HTM, Remel) • Trypticase Soy Broth (TSB, 5 mL/tube; BBL) • 0.9% Sodium Chloride (Saline; Baxter) • Trypticase Soy+5% Sheep Blood Agar Plates (TSA; BBL) • Sabouraud Dextrose Agar Plates (BBL) • Chocolate Agar Plates (BBL) • 2× Skim Milk (Remel) • Microbank Beads (Kramer Scientific) • MIC 2000 Microtiter plate inoculator. • 2× Trypticase Soy Broth (TSB, BBL)+15% glycerol/50% horse serum. • 96-Well Microtiter plates, lids, inoculum trays (Dynex Laboratories) • 8-Channel Finn Multichannel pipettor, 0.5-10 μL volume Methods: Media Preparation
(§3) Cation-Adjusted Mueller Hinton Broth (BBL): Prepared according to manufacturer's instructions (22 gms dissolved in 1000 mL water; autoclaved 22 minutes). Stored refrigerated. Filter-sterilized before use using a Corning 0.45 Tm cellulose acetate filter.
(§4) Cation-Adjusted Mueller Hinton+2.5% Lysed Horse Blood: Aseptically add 5 mL 50% lysed horse blood to 100 mL Cation-Adjusted Mueller Hinton Broth. Filter-sterilize before use using a Corning 0.45 Tm cellulose acetate filter. […]

Test [2] deals with various strains of S. aureus, S. pneumoniae, E. faecalis, E. faecium, B. subtilis and E. coli, including MRSA, VRE, multidrug-resistant E. faecium …. The test is described as above. Particulars: various strains of S. aureus, S. pneumoniae, E. faecalis, E. faecium, B. subtilis and E. coli, including MRSA, VRE, multidrug-, macrolide- and linezolid-resistant species. Format: cell-based. The procedure: as §1, §2, §3, §4

`C=C1C[C@@]23C=CC(=O)[C@@](C)(CCC(=O)Nc4c(O)ccc(C(=O)O)c4O)C2C[C@@H]1CC3` (stereo in doubt) [Compound I]: in test [1], the MIC fell in the range of 0.5 to 32 µg/mL (≈ 1.18 to 75.2 µM). The antibacterial activity entry in test [2] was “demonstrates antibacterial activity”.

The values are drawn from patent publication US7807445B2, “Antibiotic compound” (Merck Sharp and Dohme de Espana, S.A., priority 2004, dated 2010).
